Test results published in patent US11884676B2, “Substituted pyrimido[1,2-b]pyridazines as positive allosteric modulators of the muscarinic acetylcholine receptor M4” (Vanderbilt University, priority 2020, dated 2024).

Target: T1, Human M4 (Homo sapiens, UniProt P08173)
T1 construct: expressed in transfected cells
T1 sequence (P08173 1-479): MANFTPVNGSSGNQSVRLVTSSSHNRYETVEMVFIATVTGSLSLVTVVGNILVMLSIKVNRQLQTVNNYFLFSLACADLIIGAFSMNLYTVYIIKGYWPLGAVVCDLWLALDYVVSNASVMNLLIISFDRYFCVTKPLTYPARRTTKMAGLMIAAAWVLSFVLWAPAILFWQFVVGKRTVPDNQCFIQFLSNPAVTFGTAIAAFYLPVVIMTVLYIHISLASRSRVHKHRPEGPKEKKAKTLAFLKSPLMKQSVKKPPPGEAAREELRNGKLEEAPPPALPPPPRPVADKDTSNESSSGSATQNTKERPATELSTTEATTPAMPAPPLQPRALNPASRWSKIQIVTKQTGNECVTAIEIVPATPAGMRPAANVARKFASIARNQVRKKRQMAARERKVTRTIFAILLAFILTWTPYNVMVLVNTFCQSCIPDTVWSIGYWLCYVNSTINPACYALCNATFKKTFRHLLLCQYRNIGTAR
Test: mAChR M4 cell-based functional assay (calcium flux, PAM mode)
Parameters: Emax: dose or concentration left out as unconfirmed
Settings: for Emax at 30 µM: CHO-K1, % ACh maximum at 30 μM; for Emax at 30 µM / EC50: hM4-Gqi5 CHO-K1 cells; for EC50: concentration-dependent increase in the EC20 acetylcholine response
Summary of the method: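 PAM potency (EC50) and Emax came from four-parameter fits of the rise in EC20 acetylcholine-evoked calcium signal (Fluo-4, FDSS, 1 Hz). Human M4/Gqi5 CHO-K1 stable line; 11-point 1:3 compound series preceded ACh EC20 addition at 144 s, with EC80 ACh added at 230 s.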

Row | Structure (SMILES) | Emax at 30 µM | EC50 | Emax (CHO-K1, read-out: Human M4 Emax (%)*)
1 | Cc1c(N2CCC(Oc3ccc(C(F)(F)F)cc3)CC2)nn2c(=O)cc(C(F)F)nc2c1C [Compound 81, 2-(difluoromethyl)-8,9-dimethyl-7-(4-(4-(trifluoromethyl)phenoxy)piperidin-1-yl)-4H-pyrimido[1,2-b]pyridazin-4-one] | 73% | 2300 nM | 
2 | Cc1cc(=O)n2nc(N3CCC(Oc4ccc5c(c4)CCNC5=O)CC3)c(C)cc2n1 [Compound 82, 2,8-dimethyl-7-(4-((1-oxo-1,2,3,4-tetrahydroisoquinolin-6-yl)oxy)piperidin-1-yl)-4H-pyrimido[1,2-b]pyridazin-4-one] | 74% | 3340 nM | 
3 | Cc1c(N2CCC(Oc3ccc(F)cc3)CC2)nn2c(=O)ccnc2c1C [Compound 83, 7-(4-(4-fluorophenoxy)piperidin-1-yl)-8,9-dimethyl-4H-pyrimido[1,2-b]pyridazin-4-one] | 89% | 186 nM | 
4 | Cc1c(N2CCC(Oc3ccc(F)cc3)CC2)nn2c(=O)cc(C(F)F)nc2c1C [Compound 84, 2-(difluoromethyl)-7-(4-(4-fluorophenoxy)piperidin-1-yl)-8,9-dimethyl-4H-pyrimido[1,2-b]pyridazin-4-one] | 86% | 141 nM | 
5 | Cc1ccc(OC2CCN(c3nn4c(=O)cc(C(F)F)nc4c(C)c3C)CC2)cc1 [Compound 85, 2-(difluoromethyl)-8,9-dimethyl-7-(4-(p-tolyloxy)piperidin-1-yl)-4H-pyrimido[1,2-b]pyridazin-4-one] | 101% | 385 nM | 
6 | Cc1ccc(OC2CCN(c3nn4c(=O)ccnc4c(C)c3C)CC2)cn1 [Compound 86, 8,9-dimethyl-7-(4-((6-methylpyridin-3-yl)oxy)piperidin-1-yl)-4H-pyrimido[1,2-b]pyridazin-4-one] | 101% | 341 nM | 
7 | Cc1c(N2CCC(Oc3ccc(Cl)cc3)CC2)nn2c(=O)ccnc2c1C [Compound 87] |  | 268 nM | 93%
8 | Cc1ccc(OC2CCN(c3nn4c(=O)ccnc4cc3C)CC2)cc1F [Compound 88, 7-(4-(3-fluoro-4-methylphenoxy)piperidin-1-yl)-8-methyl-4H-pyrimido[1,2-b]pyridazin-4-one] | 77% | 383 nM | 
9 | CCc1ccc(OC2CCN(c3nn4c(=O)ccnc4cc3C)CC2)cc1 [Compound 89, 7-(4-(4-ethylphenoxy)piperidin-1-yl)-8-methyl-4H-pyrimido[1,2-b]pyridazin-4-one] | 76% | 503 nM | 
10 | Cc1cc2nccc(=O)n2nc1N1CCC(Oc2ccc(C(C)C)cc2)CC1 [Compound 90, 7-(4-(4-isopropylphenoxy)piperidin-1-yl)-8-methyl-4H-pyrimido[1,2-b]pyridazin-4-one] | 63% | 1110 nM | 
11 | CCCc1ccc(OC2CCN(c3nn4c(=O)ccnc4cc3C)CC2)cc1 [Compound 91, 8-methyl-7-(4-(4-propylphenoxy)piperidin-1-yl)-4H-pyrimido[1,2-b]pyridazin-4-one] | 70% | 1070 nM | 
12 | [2H]C1(Oc2ccc(C)cc2)CCN(c2nn3c(=O)ccnc3cc2C)CC1 [Compound 92, 8-methyl-7-(4-(p-tolyloxy)piperidin-1-yl-4-d)-4H-pyrimido[1,2-b]pyridazin-4-one] | 89% | 632 nM | 
13 | COCc1ncc(OC2CCN(c3nn4c(=O)ccnc4cc3C)CC2)cc1C [Compound 93, 7-(4-((6-(methoxymethyl)-5-methylpyridin-3-yl)oxy)piperidin-1-yl)-8-methyl-4H-pyrimido[1,2-b]pyridazin-4-one] | 70% | > 10000 nM | 
14 | [2H]C1(Oc2ccc3c(c2)OC([2H])([2H])C([2H])([2H])O3)CCN(c2nn3c(=O)cc(C)nc3c(C)c2C)CC1 [Compound 94, 7-(4-((2,3-dihydrobenzo[b][1,4]dioxin-6-yl-2,2,3,3-d4)oxy)piperidin-1-yl-4-d)-2,8,9-trimethyl-4H-pyrimido[1,2-b]pyridazin-4-one] | 84% | 30 nM | 
15 | [2H]C1(Oc2ccc3c(c2)OC([2H])([2H])C([2H])([2H])O3)CCN(c2nn3c(=O)cc(C(F)(F)F)nc3c(C)c2C)CC1 [Compound 95, 7-(4-((2,3-dihydrobenzo[b][1,4]dioxin-6-yl-2,2,3,3-d4)oxy)piperidin-1-yl-4-d)-8,9-dimethyl-2-(trifluoromethyl)-4H-pyrimido[1,2-b]pyridazin-4-one] | 87% | 73 nM | 
16 | [2H]C1(Oc2ccc3c(c2)OC([2H])([2H])C([2H])([2H])O3)CCN(c2nn3c(=O)cc(C(C)C)nc3c(C)c2C)CC1 [Compound 96, 7-(4-((2,3-dihydrobenzo[b][1,4]dioxin-6-yl-2,2,3,3-d4)oxy)piperidin-1-yl-4-d)-2-isopropyl-8,9-dimethyl-4H-pyrimido[1,2-b]pyridazin-4-one] | 85% | 99 nM | 
17 | [2H]C1(Oc2ccc3c(c2)OC([2H])([2H])C([2H])([2H])O3)CCN(c2nn3c(=O)ccnc3c(C3CC3)c2C)CC1 [Compound 97, 9-cyclopropyl-7-(4-((2,3-dihydrobenzo[b][1,4]dioxin-6-yl-2,2,3,3-d4)oxy)piperidin-1-yl-4-d)-8-methyl-4H-pyrimido[1,2-b]pyridazin-4-one] | 78% | 424 nM | 
18 | [2H]C1(Oc2ccc3c(c2)OC([2H])([2H])C([2H])([2H])O3)CCN(c2nn3c(=O)cc(CC)nc3c(C)c2C)CC1 [Compound 98, 7-(4-((2,3-dihydrobenzo[b][1,4]dioxin-6-yl-2,2,3,3-d4)oxy)piperidin-1-yl-4-d)-2-ethyl-8,9-dimethyl-4H-pyrimido[1,2-b]pyridazin-4-one] | 90% | 64 nM | 
19 | [2H]C1([2H])Oc2ccc(OC3CCN(c4nn5c(=O)cc(C(C)C)nc5c(C)c4C)CC3)cc2OC1([2H])[2H] [Compound 99, 7-(4-((2,3-dihydrobenzo[b][1,4]dioxin-6-yl-2,2,3,3-d4)oxy)piperidin-1-yl)-2-isopropyl-8,9-dimethyl-4H-pyrimido[1,2-b]pyridazin-4-one] | 90% | 131 nM | 
20 | [2H]C1([2H])Oc2ccc(OC3CCN(c4nn5c(=O)cc(CC)nc5c(C)c4C)CC3)cc2OC1([2H])[2H] [Compound 100, 7-(4-((2,3-dihydrobenzo[b][1,4]dioxin-6-yl-2,2,3,3-d4)oxy)piperidin-1-yl)-2-ethyl-8,9-dimethyl-4H-pyrimido[1,2-b]pyridazin-4-one] | 89% | 52 nM | 
21 | [2H]C1(Oc2ccc3c(c2)OC([2H])([2H])C([2H])([2H])O3)CCN(c2nn3c(=O)cc(CC4CCCC4)nc3c(C)c2C)CC1 [Compound 101, 2-(cyclopentylmethyl)-7-(4-((2,3-dihydrobenzo[b][1,4]dioxin-6-yl-2,2,3,3-d4)oxy)piperidin-1-yl-4-d)-8,9-dimethyl-4H-pyrimido[1,2-b]pyridazin-4-one] | 81% | 1470 nM | 
22 | [2H]C1(Oc2ccc3c(c2)OC([2H])([2H])C([2H])([2H])O3)CCN(c2nn3c(=O)ccnc3c(C)c2COC)CC1 [Compound 102, 7-(4-((2,3-dihydrobenzo[b][1,4]dioxin-6-yl-2,2,3,3-d4)oxy)piperidin-1-yl-4-d)-8-(methoxymethyl)-9-methyl-4H-pyrimido[1,2-b]pyridazin-4-one] | 94% | 170 nM | 
23 | [2H]C1(Oc2ccc3c(c2)OC([2H])([2H])C([2H])([2H])O3)CCN(c2nn3c(=O)ccnc3c(COC)c2C)CC1 [Compound 103, 7-(4-((2,3-dihydrobenzo[b][1,4]dioxin-6-yl-2,2,3,3-d4)oxy)piperidin-1-yl-4-d)-9-(methoxymethyl)-8-methyl-4H-pyrimido[1,2-b]pyridazin-4-one] | 78% | 455 nM | 
24 | [2H]C1(Oc2ccc3c(c2)OC([2H])([2H])C([2H])([2H])O3)CCN(c2nn3c(=O)ccnc3c(C)c2C2CC2)CC1 [Compound 104, 8-cyclopropyl-7-(4-((2,3-dihydrobenzo[b][1,4]dioxin-6-yl-2,2,3,3-d4)oxy)piperidin-1-yl-4-d)-9-methyl-4H-pyrimido[1,2-b]pyridazin-4-one] | 87% | 1410 nM | 
25 | [2H]C1([2H])Oc2ccc(OC3CCN(c4nn5c(=O)ccnc5c(C)c4C4CC4)CC3)cc2OC1([2H])[2H] [Compound 105, 8-cyclopropyl-7-(4-((2,3-dihydrobenzo[b][1,4]dioxin-6-yl-2,2,3,3-d4)oxy)piperidin-1-yl)-9-methyl-4H-pyrimido[1,2-b]pyridazin-4-one] | 81% | 1700 nM | 
26 | Cc1cc2nccc(=O)n2nc1N1CC[C@H](Oc2ccc3c(c2)OCCO3)C[C@H]1C [Compound 108, 7-((2R,4S)-4-((2,3-Dihydrobenzo[b][1,4]dioxin-6-yl)oxy)-2-methylpiperidin-1-yl)-8-methyl-4H-pyrimido[1,2-b]pyridazin-4-one] | 99% |  | 
